# Reference: patent publication US20070269843A1, “Diagnostic Assays That Use Mycobacteriophages” (priority 2004, published 2007)
# Values joined by “and” are separate entries in the source; they are usually repeats but may differ in a detail not shown here. Identical values can stand only once. Counter-ions that a name gives are not always drawn. Like-named read-outs stand apart in the source and are kept apart here.
# Legend:
# [1] = cited from earlier work
# [2] = system: M. tuberculosis type strain ATCC 27294; details: cited from earlier work
# [3] = system: Mycobacterium tuberculosis ATCC 27294; assay: FPTB plaque assay with CB-18 present during infection (Example 2); type: cell-based; details: for Plaque formation following infection in Tris buffer and no pre-culture / Plaque formation following overnight pre-culture in FPTB nutrient broth: duplicates a, b; for Concentration present during infection that does not interfere with the assay: M. tuberculosis ATCC 27294
# [4] = system: Mycobacterium tuberculosis ATCC 27294; assay: FASTPlaqueTB (FPTB) plaque assay after timed exposure of M. tuberculosis to CB-18 (Example 1); type: cell-based; details: for Plaque formation following infection in Tris buffer and no pre-culture / Plaque formation following overnight pre-culture in FPTB nutrient broth: duplicates a, b
# Method: In an effort to establish the effect of exposure to CB-18 on the M. tuberculosis type strain ATCC 27294, and any relationship of such an effect to time, the following experiment was performed using the FASTPlaqueTB™ (FPTB) assay manufactured by Biotec Laboratories Ltd (Ipswich, Suffolk, U.K.): A 0.5 MacFarland stock of M. tuberculosis was manufactured as described by Thornton, C. G., et al, Jour. Clin. Microbiol. 36:2004-2013 (1998), and a 1 ml portion were transferred to a 50 ml conical tubes containing 50 mM Tris-HCl pH 7.5 @ 25° C., 66 mM NaCl, 1 mM CB-18, and 0.025% N-acetyl-L-cysteine (NALC). From this tube was taken duplicate 500 μl aliquots at 0, 30, 60, 120, and 180 minutes and immediately serially diluted 400-fold to form two dilution series. In the first series (FIG. 1a), serial dilutions were made in nutrient broth (i.e., FPTB broth) provided by the manufacturer. In the second series (FIG. 1b), serial dilutions were made in a 50 mM Tris-HCl pH 7.5 @ 25° C., 66 mM NaCl buffer that had been supplemented with calcium chloride (CaCl2) to a final concentration of 2 mM.
# The first series of time point-dilutions were then incubated at 37° C. overnight in FPTB broth prior to being assayed with the FPTB plaque assay. The second series of time point-dilutions were immediately subjected to analysis using the FPTB plaque assay.
# M. tuberculosis = assay: FPTB plaque assay after exposure to CB-18 with carry-over into the infection buffer (Example 3); type: cell-based, Mycobacterium tuberculosis; details: 1 mM CB-18, 90 minutes at 37° C.; replicates 1-3, tubes a, b
# Method: To examine the effects of both exposing M. tuberculosis to CB-18, and having CB-18 carried over into the infection buffer, the following experiment was performed: A 0.5 MacFarland stock of M. tuberculosis was manufactured as described by Thornton, C. G., et al, Jour. Clin. Microbiol. 36:2004-2013 (1998), and a 0.5 ml portions were transferred to quadruplicate 50 ml conical tubes (FIG. 3). One pair of tubes simply contained 50 mM Tris-HCl pH 7.5 @ 25° C., 66 mM NaCl, and 0.025% NALC, while the other pair of tubes contained the same buffer supplemented with 1 mM CB-18. All tubes were incubated for 90 minutes at 37° C. and then diluted with sterile water to a final volume of 50 ml. In those tubes without CB-18 present, duplicate 250 μl portions were added directly to 1 ml of FPTB nutrient broth. From those tubes that contained CB-18, triplicate 250 μl portions were added to 50 mM Tris-HCl pH 7.5 @ 25° C., 66 mM NaCl, 2 mM CaCl2 buffer. All tubes were then immediately subjected to analysis using the FPTB plaque assay (i.e., the plaque assay was performed without pre-culture).
# [5] = system: mycobacteriophage D-29 in M. tuberculosis; details: cited from earlier work
# [6] = 1 mM CB-18, time of exposure 0 min
# [7] = 1 mM CB-18, time of exposure 30 min
# [8] = 1 mM CB-18, time of exposure 60 min
# [9] = 1 mM CB-18, time of exposure 120 min
# [10] = 1 mM CB-18, time of exposure 180 min
compound,measurement,setting,value
"NC(=O)CNCCS(=O)(=O)O [ACES, N-(2-Acetamido)-2-aminoethanesulfonic acid]",pKa,[1],6.78
"NC(=O)CN(CC(=O)O)CC(=O)O [ADA, N-(2-Acetamido)iminodiacetic acid]",pKa,[1],6.59
"CCCCCCCCCCCCCCCCCC[N+](C)(C)CCCC(=O)[O-] [CB-18, N-(3-carboxypropyl)-N,N-dimethyl-1-octadecanaminium, inner salt]",Growth characteristics in culture media,[2]; CB-18 present at 20 μg/ml in the culture media,significantly affected
same,Tuberculocidal activity,[2]; time-dependent killing,has tuberculocidal activity
same,Plaque formation following infection in Tris buffer and no pre-culture,[3]; CB-18 5 μg/ml present during infection,171 and 191
same,Plaque formation following overnight pre-culture in FPTB nutrient broth,[3]; CB-18 5 μg/ml,>300
same,Plaque formation following infection in Tris buffer and no pre-culture,[3]; CB-18 10 μg/ml present during infection,204 and 186
same,Plaque formation following overnight pre-culture in FPTB nutrient broth,[3]; CB-18 10 μg/ml,>300
same,Plaque formation following infection in Tris buffer and no pre-culture,[3]; CB-18 20 μg/ml present during infection,181 and 198
same,Plaque formation following overnight pre-culture in FPTB nutrient broth,[3]; CB-18 20 μg/ml,>300
same,Plaque formation following overnight pre-culture in FPTB nutrient broth,[3]; CB-18 40 μg/ml,>300
same,Concentration present during infection that does not interfere with the assay,[3],≤ 20 µg/mL
same,Concentration present during infection that does not interfere with the assay,[3]; conversion of 20 μg/ml,≤ 52 µM
same,Plaque formation following infection in Tris buffer and no pre-culture,[4]; [6],132 and 121
same,Plaque formation following overnight pre-culture in FPTB nutrient broth,[4]; [6],>300
same,Plaque formation following infection in Tris buffer and no pre-culture,[4]; [7],145 and 167
same,Plaque formation following overnight pre-culture in FPTB nutrient broth,[4]; [7],>300
same,Plaque formation following infection in Tris buffer and no pre-culture,[4]; [8],100 and 90
same,Plaque formation following overnight pre-culture in FPTB nutrient broth,[4]; [8],>300
same,Plaque formation following infection in Tris buffer and no pre-culture,[4]; [9],155 and 140
same,Plaque formation following overnight pre-culture in FPTB nutrient broth,[4]; [9],>300
same,Plaque formation following infection in Tris buffer and no pre-culture,[4]; [10],213 and 221
same,Plaque formation following overnight pre-culture in FPTB nutrient broth,[4]; [10],>300
same,Effect of exposure on D-29 mycobacteriophage plaque assay,"[4]; 1 mM CB-18 for 30, 60, 120, and 180 minutes",no deleterious effects
same,"Plaque formation following processing in CB-18, no pre-culture, and infection in Tris-CaCl2 buffer",M. tuberculosis,>300
"O=S(=O)(O)CCCCN1CCN(CCO)CC1 [HEPBS, N-(2-Hydroxyethyl)piperazine-N′-(4-butanesulfonic acid)]",pKa,[1],8.30
"O=S(=O)(O)CCCCN1CCOCC1 [MOBS, 4-(N-Morpholino)butanesulfonic acid]",pKa,[1],7.60
"O=S(=O)(O)CCN1CCN(CCS(=O)(=O)O)CC1 [PIPES, piperazine-1,4-bis(2-ethanesulfonic acid)]",pKa,[1],6.76
"O=S(=O)(O)CC(O)CN1CCN(CC(O)CS(=O)(=O)O)CC1 (stereo not shown) [POPSO, piperazine-N,N′-bis(2-hydroxypropanesulfonic acid)]",pKa,[1],7.80
CCCCCCCC/C=C\CCCCCCCC(=O)OCCOCC(OCCO)C1OCC(OCCO)C1OCCO (stereo not shown) [Tween 80],Concentration above which propagation of mycobacteriophage D-29 in M. tuberculosis is interfered with,[5],above 0.0012%
same,Concentration above which propagation of mycobacteriophage D-29 in M. tuberculosis is interfered with,[5]; printed as conversion of […],> 1 EM
